What all share (format): cell-based
Test [1] has as its system SK-OV-3 cells. In words: Cancer cell viability assay with 3D cell colonies (CellTiter-Glo), SK-OV-3. Particulars: Homo sapiens, SK-OV-3, 168 h; 3D tumorsphere growth, 7 days. As for the experimental part:
(§1) Ovarian cancer cell line SK-OV-3 cells were cultured in McCoy's 5a media containing 10% FBS. Ovarian cancer cell line OVCAR-8 cells were cultured in RPMI media containing 10% FBS. Additional cancer cell lines were cultured in the following media: • Ovarian cancer SW756 cells—L-15 (100% air)+10% FBS • Esophageal cancer TE-1 cells—RPMI-1640+10% FBS • Esophageal cancer KYSE-410 cells—RPMI-1640+5˜10% FBS • Esophageal cancer KYSE-70 cells—RPMI-1640+10% h.i.FBS. • Pharyngeal cancer FaDu cells—MEM+0.01 mM NEAA+10% FBS
(§2) Cell colony formation was tested using a 3D methylcellulose-based CellTiter-Glo (CTG) viability assay (Cat. No: G7573, Promega). Briefly, cells were inoculated into 96-well plates (at 1,500 cells per well) into a solution of 0.65% methylcellulose in growth media and incubated overnight at 37° C. in 5% CO2. The next day, serially diluted test compound (islatravir) or positive control (cisplatin, Cat. No. 6J015A89, Qilu Pharma) were added at the indicated concentrations, and the cells were incubated for 7 days. On day seven, 100 μL of CTG reagent was added, and the plates were incubated at room temperature for 20 min. Luminescence was read on an Envision Multi Label Reader according to manufacturer's instructions. IC50 values were determined using the following calculation: […]

Test [2] deals with IFN-β production in PBMCs. In words: Decitabine-stimulated human PBMC assay. The conditions noted are these: PBMCs with anti-CD3/anti-CD28 and 10 μM decitabine, 5 days. The method, then: EasySep buffer (32 mL, Stem Cell, cat. #20144) was used to dilute 8 mL of LRSC buffy coat (from fresh Leukopak) with gentle mixing. The diluted buffy coat (20 mL) was transferred into each of two SepMate 50 tubes, and the tubes were filled with 15 mL of Lyphoprep (Stem Cell, ct. #07851) density gradient. The SepMate tubes were then centrifuged at […] for 10 minutes at room temperature with the brake on. The top layer of supernatant was collected in SepMate tubes by quickly pouring it into a new 50 mL conical tube. The PBMCs were washed with EasySep buffer x2 by centrifuging at 300G for 5 minutes. The cells were resuspended in 30 mL of EasySep and centrifuged at 100G for 5 minutes with the brake off, and the platelets were removed. The cells were then resuspended in 6 mL of 1×RBC lysis buffer (InvitroGen) and incubated at 37° C. for 5 minutes. Then, 25 mL of EasySep buffer was mixed into the tube and it was centrifuged at 300G for 5 minutes. The cells were resuspended in 10 mL of EasySep buffer and the cells were then counted with Cellometer (AO/PI). The PBMCs were resuspended in RPMI1640 (ThermoFisher)+10% FBS (HyClone)+p/s at 3×10^6/mL. The PBMCs (100 μL, 300 k PBMCs) were then seeded in a 96-well flat bottom microplate (Corning) that had been precoated with 100 μL of anti-CD3 antibody (10 μg/mL in PBS, Biolegend) or PBS at 4° C., one day before the assay was commenced. […]

Test [3] relates to KYSE-410 cells. In words: Cancer cell viability assay with 3D cell colonies (CellTiter-Glo), KYSE-410. Particulars: Homo sapiens, KYSE-410, 168 h, 7 days. As for the experimental part: as §1, §2
For orientation: Cellular ATP, detected with luciferase, serves as a proxy for viable cell number.

Test [4] relates to OVCAR-8 cells. In words: Cancer cell viability assay with 3D cell colonies (CellTiter-Glo), OVCAR-8. Particulars: Homo sapiens, OVCAR-8, 168 h; 3D tumorsphere growth, 7 days. As for the experimental part:
as §1, §2

Test [5] deals with KYSE-70 cells. In words: Cancer cell viability assay with 3D cell colonies (CellTiter-Glo), KYSE-70. Particulars: Homo sapiens, KYSE-70, 168 h, 7 days. The method, then:
as §1, §2

For test [6], the system named is SW756 cells. Briefly: Cancer cell viability assay with 3D cell colonies (CellTiter-Glo), SW756. The conditions noted are these: Homo sapiens, SW756, 168 h, 7 days. As for the experimental part:
as §1, §2

One compound from patent US20250186475A1, “METHODS OF TREATING MEDICAL CONDITIONS USING ISLATRAVIR OR A RELATED COMPOUND” (ROME Therapeutics, Inc., priority 2022, published 2025) can be followed below.

A value given as a limit tells only on which side of the number the result lay.

What is called IC50 is the concentration at which inhibition is half-maximal.

With `C#C[C@]1(CO)O[C@@H](n2cnc3c(N)nc(F)nc32)C[C@@H]1O` [Islatravir, (2R,3S,5R)-5-(6-amino-2-fluoro-9H-purin-9-yl)-2-ethynyl-2-(hydroxymethyl)tetrahydrofuran-3-ol], the IC50 in test [1] was 6.54 µM; in test [3], > 30 µM; in test [4], 1.95 µM; in test [5] it was 10 to 30 µM; in test [6], > 30 µM. Also, the “production of IFN-β” value in test [2] is “activated production of IFN-β”.
